In patent US10189809B2, “SGC stimulators” (Ironwood Pharmaceuticals, Inc., priority 2010, dated 2019):

What was measured:
[1] = target: T1, Human soluble guanylate cyclase enzyme (hsGC) (Homo sapiens (Human), UniProt Q02108+Q02153); assay: Purified human sGC enzyme activity assay; type: biochemical; settings: for sGC Enzyme (specific activity at 10 μM) / sGC Enzyme (fold increase at 10 μM without SNP): 10 μM compound; for sGC Enzyme (specific activity at 30 μM) / sGC Enzyme (fold increase at 30 μM without SNP): 30 μM compound
T1 sequence (Q02153 whole entry): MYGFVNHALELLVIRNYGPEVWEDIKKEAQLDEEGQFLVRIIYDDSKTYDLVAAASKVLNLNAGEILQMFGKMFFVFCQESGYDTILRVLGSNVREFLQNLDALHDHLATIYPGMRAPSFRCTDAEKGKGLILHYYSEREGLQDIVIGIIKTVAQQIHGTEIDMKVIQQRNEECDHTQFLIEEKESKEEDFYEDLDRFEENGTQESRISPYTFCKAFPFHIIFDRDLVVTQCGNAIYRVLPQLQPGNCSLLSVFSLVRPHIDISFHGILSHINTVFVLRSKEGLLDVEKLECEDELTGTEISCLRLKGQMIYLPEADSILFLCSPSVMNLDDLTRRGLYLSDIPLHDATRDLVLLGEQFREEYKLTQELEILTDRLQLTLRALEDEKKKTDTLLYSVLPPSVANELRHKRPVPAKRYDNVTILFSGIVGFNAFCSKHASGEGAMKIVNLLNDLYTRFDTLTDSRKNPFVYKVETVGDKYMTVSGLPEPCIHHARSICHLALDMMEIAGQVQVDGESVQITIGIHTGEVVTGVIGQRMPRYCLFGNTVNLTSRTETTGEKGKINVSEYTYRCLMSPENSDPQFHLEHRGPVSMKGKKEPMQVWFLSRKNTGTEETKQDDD
T1 sequence (Q02108 whole entry): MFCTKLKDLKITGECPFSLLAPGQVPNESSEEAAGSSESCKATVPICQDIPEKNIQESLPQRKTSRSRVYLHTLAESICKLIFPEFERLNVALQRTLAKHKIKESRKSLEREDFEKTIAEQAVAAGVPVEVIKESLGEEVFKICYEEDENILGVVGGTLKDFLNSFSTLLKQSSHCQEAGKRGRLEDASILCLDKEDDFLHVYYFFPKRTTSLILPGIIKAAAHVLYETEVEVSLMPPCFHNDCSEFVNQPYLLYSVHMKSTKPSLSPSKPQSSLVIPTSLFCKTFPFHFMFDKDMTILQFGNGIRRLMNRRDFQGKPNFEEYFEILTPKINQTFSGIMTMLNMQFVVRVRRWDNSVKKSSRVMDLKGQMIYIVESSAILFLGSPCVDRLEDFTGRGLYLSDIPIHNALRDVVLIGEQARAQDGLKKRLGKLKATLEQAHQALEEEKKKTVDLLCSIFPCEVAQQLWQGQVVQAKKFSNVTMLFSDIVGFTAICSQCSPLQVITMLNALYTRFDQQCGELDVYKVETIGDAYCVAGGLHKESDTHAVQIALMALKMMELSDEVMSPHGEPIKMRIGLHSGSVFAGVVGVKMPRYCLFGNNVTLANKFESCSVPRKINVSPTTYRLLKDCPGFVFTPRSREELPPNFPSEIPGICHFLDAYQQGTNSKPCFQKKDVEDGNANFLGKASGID
Summary of the method: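 Purified human sGC (5 ng) incubated 30 min at 37° C with compound at 10 or 30 μM final in pH 8.0 Tris with 300 μM GTP, 2 mM MgCl2, 2 mM DTT and 1 mM IBMX, then stopped with cold methanol. cGMP quantified against a standard curve. Specific activity (nmol cGMP/mg sGC/min) expressed as fold-change over DMSO control.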

[2] = target: T2, soluble guanylate cyclase (sGC) (Homo sapiens (Human), UniProt Q02108+Q02153); assay: sGC-HEK-cGMP assay run in the absence of SNP (HEK WC assay); type: cell-based; settings: no SNP, increase in the sGC receptor activity; for HEK WC Assay (fold increase at 10 μM): compound at 10 μM; for HEK WC Assay (fold increase at 30 μM): compound at 30 μM
T2 sequence (Q02153 whole entry): as the sequence (Q02153 whole entry) above
T2 sequence (Q02108 whole entry): as the sequence (Q02108 whole entry) above
Summary of the method: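 HEK293 cells with endogenous sGC, preincubated 15 min at 37° C with 0.5 mM IBMX, then exposed to test compound 10 min at 37° C without SNP. Cells lysed in 0.1 M HCl; cGMP quantified by LC/MS against a standard curve. EC50 from concentration-response curves.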

[3] = target: T2, soluble guanylate cyclase (sGC); assay: sGC-HEK-cGMP assay run with SNP incubation (HEK WC assay); type: cell-based; settings: for Emax at 10 µM: read-out: HEK WC Assay (% Emax at 10 uM/with 10 uM SNP); for Emax at 30 µM: read-out: HEK WC Assay (% Emax at 30 uM/with 10 uM SNP)
Summary of the method: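 HEK293 cells with endogenous sGC were pretreated with 0.5 mM IBMX for 15 min at 37 °C, then exposed to test compound plus sodium nitroprusside for 10 min at 37 °C.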

Thoracic aortic rings = Thoracic aortic rings assay (Example 19a; IBMX as 100% inhibition); settings: compound at 10 μM, rat thoracic aortic rings contracted with 100 ng/mL phenylephrine; for inhibition at 10 µM: read-out: Percent Relaxation at 10 μM
Procedure: Thoracic aortic rings were dissected from anesthetized (isoflurane) male Sprague-Dawley rats weighing 275-299 g. Tissues were immediately transferred to ice-cold Krebs-Henseleit solution, which had been aerated with 95% O2 and 5% CO2 for 30 minutes. Following removal of connective tissue, aortic sections were cut into 4 rings (˜2 mm each) and suspended on 2 L-shaped hooks, with one hook fixed at the bottom of the tissue bath (Schuler Organ Bath, Harvard Apparatus) and the other connected to a force transducer (F30 Force Transducer, Harvard Apparatus). Baths contained Krebs Henseleit solution (10 mL) heated to 37° C. and aerated with 95% O2 and 5% CO2. Rings were brought to an initial tension of 0.3-0.5 g and gradually raised to a resting tension of 1.0 g over 60 minutes. Rings were rinsed with Krebs Henseleit solution (heated to 37° C. and aerated with 95% O2 and 5% CO2) at 15 minute intervals until a stable baseline was obtained. Rings were considered to be stable after a resting tension of 1.0 g was maintained (for approximately 10 minutes) without need for adjustment. Rings were then contracted with 100 ng/mL phenylephrine by adding 100 uL of a 10 μg/mL phenylephrine stock solution. Tissues achieving a stable contraction were then treated in a cumulative, dose dependent manner with test compounds prepared in dimethylsulfoxide (DMSO). In some cases, tissues were rinsed three times over a 5 minute period with Krebs-Heinseleit's solution (heated to 37° C. and aerated with 95% O2 and 5% CO2), allowed to stabilize at baseline, and then used for characterization of other test articles or DMSO effects. All data were collected using the HSE-ACAD software provided by Harvard Apparatus. […] EC50 values were calculated from concentration-response curves generated with GraphPad Prism Software.

[4] = target: T1, Human soluble guanylate cyclase enzyme (hsGC); assay: Purified human sGC enzyme synergy assay in the presence of 1 μM sodium nitroprusside (SNP); type: biochemical; settings: with 1 μM SNP; for sGC Enzyme (fold increase at 10 μM with SNP): 10 μM compound; for sGC Enzyme (fold increase at 30 μM with SNP): 30 μM compound
Summary of the method: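 Purified human sGC (5 ng) incubated 30 min at 37 °C with compounds at 10 or 30 μM, 1 μM sodium nitroprusside, 300 μM GTP and 1 mM IBMX in Tris pH 8.0 with MgCl2/DTT. cGMP quantified against a standard curve, and specific activity expressed as fold-change over DMSO control.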

| SMILES | sGC Enzyme (specific activity at 10 μM) [1] | sGC Enzyme (fold increase at 10 μM without SNP) [1] | sGC Enzyme (specific activity at 30 μM) [1] | sGC Enzyme (fold increase at 30 μM without SNP) [1] | HEK WC Assay (fold increase at 10 μM) [2] | HEK WC Assay (fold increase at 30 μM) [2] | Emax at 10 µM [3] [%] | Emax at 30 µM [3] [%] | sGC Enzyme (fold increase at 10 μM with SNP) [4] | sGC Enzyme (fold increase at 30 μM with SNP) [4] | inhibition at 10 µM (Thoracic aortic rings) [%] | Percent Relaxation at 10 μM (Thoracic aortic rings) [%] |
| --- | --- | --- | --- | --- | --- | --- | --- | --- | --- | --- | --- | --- |
| Fc1ccccc1Cn1nc(-c2ccccn2)cc1-c1ccccn1 [Compound I-1] | B (B = 50 to <100) | B (B = 2 to <5 fold increase) | C (C = 100 to <200) | C (C = 5 to <10 fold increase) | A (A = no increase to <1 fold increase) | C (C = 2 to <5 fold increase) | 0 to 10 | 10 to 20 | – | – | 53.7 | – |
| N#Cc1cc(-c2ccccn2)nn1Cc1ccccc1F [Compound I-3] | D (D = 200 to <500) | B (B = 2 to <5 fold increase) | – | C (C = 5 to <10 fold increase) | A (A = no increase to <1 fold increase) | D (D = 5 to <10 fold increase) | 20 to 40 | 40 to 60 | C (C = 5 to <10 fold increase) | C (C = 5 to <10 fold increase) | 92 | – |
| Fc1ccccc1Cn1nc(-c2ccccn2)cc1-c1ccccc1F [Compound I-7] | D (D = 200 to <500) | B (B = 2 to <5 fold increase) | D (D = 200 to <500) | B (B = 2 to <5 fold increase) | – | – | 0 to 10 | 0 to 10 | B (B = 2 to <5 fold increase) | C (C = 5 to <10 fold increase) | 60.4 | – |
| Fc1ccccc1Cn1nc(-c2ccccn2)cc1C1CCC1 [Compound I-42] | D (D = 200 to <500) | B (B = 2 to <5 fold increase) | E (E = 500 to <1000) | C (C = 5 to <10 fold increase) | – | – | 0 to 10 | 10 to 20 | B (B = 2 to <5 fold increase) | C (C = 5 to <10 fold increase) | 72.1 | – |
| Fc1ccccc1Cn1nc(-c2ccccn2)cc1-c1nnco1 [Compound I-45] | C (C = 100 to <200) | A (A = no increase to <2 fold increase) | C (C = 100 to <200) | B (B = 2 to <5 fold increase) | – | – | 20 to 40 | 20 to 40 | C (C = 5 to <10 fold increase) | D (D = equal or >10 fold increase) | 94.9 | – |
| Fc1ccccc1Cn1nc(-c2ccccn2)cc1-c1ccco1 [Compound I-61] | C (C = 100 to <200) | B (B = 2 to <5 fold increase) | D (D = 200 to <500) | C (C = 5 to <10 fold increase) | – | – | 20 to 40 | 20 to 40 | D (D = equal or >10 fold increase) | D (D = equal or >10 fold increase) | 103 | – |
| Nc1nc(-c2nn(Cc3ccccc3F)c3ncccc23)ncc1C1CC1 [Reference Compound, BAY 41-2272, reference compound] | – | – | – | – | – | – | – | – | – | – | – | 100 |

Second part, led by results:

| sGC Enzyme (specific activity at 10 μM) [1] | sGC Enzyme (fold increase at 10 μM without SNP) [1] | sGC Enzyme (specific activity at 30 μM) [1] | sGC Enzyme (fold increase at 30 μM without SNP) [1] | HEK WC Assay (fold increase at 10 μM) [2] | HEK WC Assay (fold increase at 30 μM) [2] | Emax at 10 µM [3] [%] | Emax at 30 µM [3] [%] | sGC Enzyme (fold increase at 10 μM with SNP) [4] | sGC Enzyme (fold increase at 30 μM with SNP) [4] | SMILES | inhibition at 10 µM (Thoracic aortic rings) [%] | Percent Relaxation at 10 μM (Thoracic aortic rings) [%] |
| --- | --- | --- | --- | --- | --- | --- | --- | --- | --- | --- | --- | --- |
| B (B = 50 to <100) | B (B = 2 to <5 fold increase) | A (A = 0 to <50) | B (B = 2 to <5 fold increase) | A (A = no increase to <1 fold increase) | B (B = 1 to <2 fold increase) | 10 to 20 | 20 to 40 | – | – | Fc1ccccc1Cn1nc(-c2ncccn2)cc1-c1ccccc1 [Compound I-2] | 101 | – |
| E (E = 500 to <1000) | B (B = 2 to <5 fold increase) | E (E = 500 to <1000) | C (C = 5 to <10 fold increase) | A (A = no increase to <1 fold increase) | D (D = 5 to <10 fold increase) | 10 to 20 | 20 to 40 | B (B = 2 to <5 fold increase) | C (C = 5 to <10 fold increase) | Fc1ccccc1Cn1nc(-c2ncccn2)cc1-c1ccsc1 [Compound I-4] | 102 | – |
| D (D = 200 to <500) | B (B = 2 to <5 fold increase) | D (D = 200 to <500) | C (C = 5 to <10 fold increase) | – | – | 20 to 40 | 40 to 60 | C (C = 5 to <10 fold increase) | D (D = equal or >10 fold increase) | Fc1ccccc1Cn1nc(-c2ccccn2)cc1-c1ccsc1 [Compound I-26] | 85.3 | – |
| C (C = 100 to <200) | B (B = 2 to <5 fold increase) | D (D = 200 to <500) | B (B = 2 to <5 fold increase) | – | – | 20 to 40 | 40 to 60 | – | – | Fc1ccccc1Cn1nc(-c2ccccn2)cc1-c1nccs1 [Compound I-27] | 77.2 | – |
| C (C = 100 to <200) | A (A = no increase to <2 fold increase) | C (C = 100 to <200) | B (B = 2 to <5 fold increase) | – | – | 0 to 10 | 10 to 20 | B (B = 2 to <5 fold increase) | C (C = 5 to <10 fold increase) | Nc1ccnc(-c2cc(-c3ccccn3)n(Cc3ccccc3F)n2)n1 [Compound I-31] | 93.2 | – |
| D (D = 200 to <500) | C (C = 5 to <10 fold increase) | E (E = 500 to <1000) | D (D = equal or >10 fold increase) | – | – | 20 to 40 | 40 to 60 | – | – | Nc1ccnc(-c2cc(-c3ccsc3)n(Cc3ccccc3F)n2)n1 [Compound I-49] | 106 | – |
| B (B = 50 to <100) | B (B = 2 to <5 fold increase) | C (C = 100 to <200) | C (C = 5 to <10 fold increase) | – | – | 20 to 40 | 20 to 40 | C (C = 5 to <10 fold increase) | D (D = equal or >10 fold increase) | Fc1ccccc1Cn1nc(-c2ncccn2)cc1-c1cccs1 [Compound I-66] | 103 | – |
